# Measurements taken from patent publication US20230201168A1, “NEW THERAPY FOR THE TREATMENT OF TUMORS” (Università degli Studi di Trento, priority 2020, published 2023).
# Assays:
# COMI cells = assay: Viability assay (Hoechst 33342/PI), COMI cells; format: cell-based; conditions: Homo sapiens, 48 h, mean±SD
# Method: (§1) For the evaluation of the effect of Q/D, streptogramins A analogues (alone or in combination with Q) and TMZ on GSCs viability, cells were seeded into 96-well laminin-coated microtiter plates in 150 μL of media. The plates were incubated for 24 h prior to drug treatment. Serial drug dilutions were prepared in PBS to provide a total of seven drug concentrations plus control. 10 μL of these dilutions were added to each well, and the plates were incubated for additional 48 h. Each treatment was performed in technical quadruplicate. After the drug treatments, the cells were stained with Hoechst 33342 (1 μg/mL; Thermo Fisher Scientific, cat. H1399) and Propidium Iodide (PI, 1 μg/mL; Sigma Aldrich, cat. P4170) and incubated for 20 min shaking in the dark. The plates were then read using Operetta-High Content Imaging System (Perkin Elmer) and analyzed using the Harmony Software. The number of viable cells was calculated by subtracting PI positive cells from the total number of cells estimated by Hoechst 33342 staining and normalized on the non treated control.
# (§2) Dose-response curves were plotted and growth inhibition 50 (GI50) values calculated using the GraphPad Prism software.
# VIPI cells = assay: Viability assay (Hoechst 33342/PI), VIPI cells; format: cell-based; conditions: Homo sapiens, 48 h, mean±SD
# Method: as §1, §2
structure (smiles),measurement,setting,value
"Cn1nnc2c(C(N)=O)ncn2c1=O [TMZ, temozolomide]",GI50,COMI cells,96.5 ± 15.2 µM
same,GI50,VIPI cells,338 ± 35.5 µM
